In US20090029995A1, “HETERO BIARYL DERIVATIVES AS MATRIX METALLOPROTEINASE INHIBITORS” (WARNER-LAMBERT COMPANY, priority 2002, published 2009):

Legend:
[1] = molecular target: T1, MMP-13 catalytic domain (Homo sapiens, UniProt P45452); assay: MMP-13 catalytic domain inhibition (thiopeptolide substrate hydrolysis); format: biochemical; details: read-out: MMP-13CD IC50
T1 construct: use the catalytic domain of the MMP-13 enzyme, namely matrix metalloproteinase-13 catalytic domain (“MMP-13CD”)
Excerpt: The assays measure the amount by which a test compound reduces the hydrolysis of a thiopeptolide substrate catalyzed by a matrix metalloproteinase enzyme. […] One such assay is described below in Biological Method 1.
Some of the particular methods described below use the catalytic domain of the MMP-13 enzyme, namely matrix metalloproteinase-13 catalytic domain (“MMP-13CD”), rather than the corresponding full-length enzyme, MMP-13.
Thiopeptolide substrates show virtually no decomposition or hydrolysis at or below neutral pH in the absence of a matrix metalloproteinase enzyme. A typical thiopeptolide substrate commonly utilized for assays is Ac-Pro-Leu-Gly-thioester-Leu-Leu-Gly-OEt. […] Assays are carried out with and without matrix metalloproteinase inhibitor compounds, and the amount of hydrolysis is compared for a determination of inhibitory activity of the test compounds.

[2] = molecular target: T2, MMP-1 full-length (Homo sapiens, UniProt P03956); assay: MMP-1 full-length inhibition (thiopeptolide substrate hydrolysis); format: biochemical; details: read-out: MMP-1FL IC50
T2 sequence (P03956 100-469): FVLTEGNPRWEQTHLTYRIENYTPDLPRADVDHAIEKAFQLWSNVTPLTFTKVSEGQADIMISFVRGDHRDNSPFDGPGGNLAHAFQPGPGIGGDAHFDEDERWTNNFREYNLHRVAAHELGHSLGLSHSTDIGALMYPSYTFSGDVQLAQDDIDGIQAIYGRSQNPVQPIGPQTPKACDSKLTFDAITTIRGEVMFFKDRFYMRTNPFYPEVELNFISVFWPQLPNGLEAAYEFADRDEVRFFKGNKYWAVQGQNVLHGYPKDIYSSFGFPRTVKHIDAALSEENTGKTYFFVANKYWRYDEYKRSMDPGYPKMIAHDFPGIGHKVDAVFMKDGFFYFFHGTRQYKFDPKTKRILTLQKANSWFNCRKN
Excerpt: (§1) Certain compounds of Formula I have been assayed with MMP-1 full-length, MMP-3 catalytic domain, MMP-7 full-length, MMP-8 full-length, MMP-9 full-length, MMP-12 catalytic domain, MMP-14 catalytic domain, and MMP-17 catalytic domain.
(§2) The assays measure the amount by which a test compound reduces the hydrolysis of a thiopeptolide substrate catalyzed by a matrix metalloproteinase enzyme. Such assays are described in detail by Ye et al., in Biochemistry, 1992; 31(45): 11231-11235, which is incorporated herein by reference. One such assay is described below in Biological Method 1.
(§3) Thiopeptolide substrates show virtually no decomposition or hydrolysis at or below neutral pH in the absence of a matrix metalloproteinase enzyme. A typical thiopeptolide substrate commonly utilized for assays is Ac-Pro-Leu-Gly-thioester-Leu-Leu-Gly-OEt. A 100 μL assay mixture will contain 50 mM of N-2-hydroxyethylpiperazine-N′-2-ethanesulfonic acid buffer (“HEPES,” pH 7.0), 10 mM CaCl2, 100 μM thiopeptolide substrate, and 1 mM 5,5′-dithio-bis-(2-nitro-benzoic acid) (DTNB). The thiopeptolide substrate concentration may be varied, for example from 10 to 800 μM to obtain Km and Kcat values. The change in absorbance at 405 nm is monitored on a Thermo Max microplate reader (molecular Devices, Menlo Park, Calif.) at room temperature (22° C.). The calculation of the amount of hydrolysis of the thiopeptolide substrate is based on E412=13600 M^−1 cm^−1 for the DTNB-derived product 3-carboxy-4-nitrothiophenoxide. […]
(§4) Some representative compounds of Formula I have been evaluated for their ability to inhibit MMP-13. Inhibitor activity versus other MMPs with the compounds may be determined using, for example, MMP-1FL, which refers to full length interstitial collagenase; MMP-2FL, which refers to full length Gelatinase A; MMP-3CD, which refers to the catalytic domain of stromelysin; MMP-7FL, which refers to full length matrilysin; MMP-9FL, which refers to full length Gelatinase B; MMP-13CD, which refers to the catalytic domain of collagenase 3; and MMP-14CD, which refers to the catalytic domain of MMP-14. […]

[3] = molecular target: MMP-3 catalytic domain (Homo sapiens, UniProt P08254); assay: MMP-3 catalytic domain inhibition (thiopeptolide substrate hydrolysis, MES buffer pH 6.0); format: biochemical; details: read-out: MMP-3CD IC50
Excerpt: as §1, §2
(§5) Thiopeptolide substrates show virtually no decomposition or hydrolysis at or below neutral pH in the absence of a matrix metalloproteinase enzyme. A typical thiopeptolide substrate commonly utilized for assays is Ac-Pro-Leu-Gly-thioester-Leu-Leu-Gly-OEt. A 100 μL assay mixture will contain 50 mM of N-2-hydroxyethylpiperazine-N′-2-ethanesulfonic acid buffer (“HEPES,” pH 7.0), 10 mM CaCl2, 100 μM thiopeptolide substrate, and 1 mM 5,5′-dithio-bis-(2-nitro-benzoic acid) (DTNB). The thiopeptolide substrate concentration may be varied, for example from 10 to 800 μM to obtain Km and Kcat values. The change in absorbance at 405 nm is monitored on a Thermo Max microplate reader (molecular Devices, Menlo Park, Calif.) at room temperature (22° C.). The calculation of the amount of hydrolysis of the thiopeptolide substrate is based on E412=13600 M^−1 cm^−1 for the DTNB-derived product 3-carboxy-4-nitrothiophenoxide. Assays are carried out with and without matrix metalloproteinase inhibitor compounds, and the amount of hydrolysis is compared for a determination of inhibitory activity of the test compounds.
(§6) Test compounds were evaluated at various concentrations in order to determine their respective IC50 values, the micromolar concentration of compound required to cause a 50% inhibition of catalytic activity of the respective enzyme.
It should be appreciated that the assay buffer used with MMP-3CD was 50 mM N-morpholinoethane sulfonate (“MES”) at pH 6.0 rather than the HEPES buffer at pH 7.0 described above. […]
as §4

[4] = molecular target: T3, MMP-7 full-length (Homo sapiens, UniProt P09237); assay: MMP-7 full-length inhibition (thiopeptolide substrate hydrolysis); format: biochemical
T3 sequence (P09237 95-267): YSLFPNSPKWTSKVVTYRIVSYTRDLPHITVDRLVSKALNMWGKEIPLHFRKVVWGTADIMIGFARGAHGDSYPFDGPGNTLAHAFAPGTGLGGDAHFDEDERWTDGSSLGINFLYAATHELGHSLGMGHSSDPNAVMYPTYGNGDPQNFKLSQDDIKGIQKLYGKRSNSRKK
Excerpt: as §1, §2, §3, §4

[5] = molecular target: T4, MMP-8 full-length (Homo sapiens, UniProt P22894); assay: MMP-8 full-length inhibition (thiopeptolide substrate hydrolysis); format: biochemical; details: read-out: MMP-8FL IC50
T4 construct: MMP-7 full-length, MMP-8 full-length, MMP-9 full-length
Excerpt: as §1, §2, §5, §6

[6] = molecular target: MMP-9 full-length (Homo sapiens, UniProt P14780); assay: MMP-9 full-length inhibition (thiopeptolide substrate hydrolysis); format: biochemical; details: read-out: MMP-9FL IC50
Excerpt: as §1, §2, §5, §6
(§7) The test described above for the inhibition of MMP-13 may also be adapted and used to determine the ability of the compounds of Formula I to inhibit the matrix metalloproteases MMP-1, MMP-2, MMP-3, MMP-7, MMP-9, MMP-12 and MMP-14.
as §4

[7] = molecular target: MMP-14 catalytic domain (Homo sapiens, UniProt P50281); assay: MMP-14 catalytic domain inhibition (thiopeptolide substrate hydrolysis); format: biochemical; details: read-out: MMP-14CD IC50
Excerpt: as §1, §2, §5, §6, §7, §4

[8] = molecular target: T5, MMP-17 catalytic domain (Homo sapiens, UniProt Q9ULZ9); assay: MMP-17 catalytic domain inhibition (thiopeptolide substrate hydrolysis); format: biochemical; details: read-out: MMP-17CD IC50
T5 construct: MMP-12 catalytic domain, MMP-14 catalytic domain, and MMP-17 catalytic domain
T5 sequence (Q9ULZ9 126-295 limits assumed): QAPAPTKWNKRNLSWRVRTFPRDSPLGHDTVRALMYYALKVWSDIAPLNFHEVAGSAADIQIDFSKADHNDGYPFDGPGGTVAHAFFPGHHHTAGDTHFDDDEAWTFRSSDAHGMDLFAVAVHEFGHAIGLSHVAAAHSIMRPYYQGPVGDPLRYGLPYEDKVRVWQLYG
Excerpt: as §1, §2, §5, §6

[9] = molecular target: T6, MMP-12 catalytic domain (Homo sapiens, UniProt P39900); assay: MMP-12 catalytic domain inhibition (thiopeptolide substrate hydrolysis); format: biochemical; details: read-out: MMP-12CD IC50
T6 construct: MMP-12 catalytic domain, MMP-14 catalytic domain, and MMP-17 catalytic domain
Excerpt: as §1, §2
Thiopeptolide substrates show virtually no decomposition or hydrolysis at or below neutral pH in the absence of a matrix metalloproteinase enzyme. A typical thiopeptolide substrate commonly utilized for assays is Ac-Pro-Leu-Gly-thioester-Leu-Leu-Gly-OEt. A 100 μL assay mixture will contain 50 mM of N-2-hydroxyethylpiperazine-N′-2-ethanesulfonic acid buffer (“HEPES,” pH 7.0), 10 mM CaCl2, 100 μM thiopeptolide substrate, and 1 mM 5,5′-dithio-bis-(2-nitro-benzoic acid) (DTNB). The thiopeptolide substrate concentration may be varied, for example from 10 to 800 μM to obtain Km and Kcat values. The change in absorbance at 405 nm is monitored on a Thermo Max microplate reader (molecular Devices, Menlo Park, Calif.) at room temperature (22° C.). […]

Sequence of MMP-9 full-length (P14780 94-707): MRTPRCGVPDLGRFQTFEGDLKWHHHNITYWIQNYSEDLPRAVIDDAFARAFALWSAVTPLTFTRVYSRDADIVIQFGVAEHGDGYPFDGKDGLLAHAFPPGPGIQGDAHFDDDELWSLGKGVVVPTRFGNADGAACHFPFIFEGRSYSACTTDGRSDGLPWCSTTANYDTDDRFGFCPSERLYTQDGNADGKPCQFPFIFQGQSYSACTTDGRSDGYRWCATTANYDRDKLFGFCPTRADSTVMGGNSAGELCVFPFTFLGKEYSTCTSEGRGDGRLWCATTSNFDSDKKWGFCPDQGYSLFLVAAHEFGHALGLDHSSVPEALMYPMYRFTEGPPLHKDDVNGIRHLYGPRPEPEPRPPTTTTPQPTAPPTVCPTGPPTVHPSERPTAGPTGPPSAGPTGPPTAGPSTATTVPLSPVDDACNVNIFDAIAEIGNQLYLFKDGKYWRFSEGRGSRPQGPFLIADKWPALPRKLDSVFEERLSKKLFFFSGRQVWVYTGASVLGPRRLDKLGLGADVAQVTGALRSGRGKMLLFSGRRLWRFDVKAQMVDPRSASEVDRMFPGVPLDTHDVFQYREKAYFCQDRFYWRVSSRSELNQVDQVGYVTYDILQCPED
T4 sequence (P22894 101-467): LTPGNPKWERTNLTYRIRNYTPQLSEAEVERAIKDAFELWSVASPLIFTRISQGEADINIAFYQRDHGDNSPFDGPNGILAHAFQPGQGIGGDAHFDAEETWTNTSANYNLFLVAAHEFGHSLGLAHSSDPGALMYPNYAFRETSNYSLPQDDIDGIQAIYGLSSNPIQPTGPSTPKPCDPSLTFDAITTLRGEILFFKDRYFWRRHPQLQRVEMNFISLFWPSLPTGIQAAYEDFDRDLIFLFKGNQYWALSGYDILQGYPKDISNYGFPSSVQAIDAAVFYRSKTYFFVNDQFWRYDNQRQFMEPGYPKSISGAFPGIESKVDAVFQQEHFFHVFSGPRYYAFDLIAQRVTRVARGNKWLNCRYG
Sequence of MMP-3 catalytic domain (P08254 100-272 limits assumed): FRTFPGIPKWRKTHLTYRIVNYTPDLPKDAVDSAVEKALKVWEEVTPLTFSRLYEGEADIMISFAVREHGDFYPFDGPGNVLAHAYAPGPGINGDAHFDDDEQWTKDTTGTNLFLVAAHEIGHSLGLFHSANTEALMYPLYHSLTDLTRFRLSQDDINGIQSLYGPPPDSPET
T6 sequence (P39900 106-263 limits assumed): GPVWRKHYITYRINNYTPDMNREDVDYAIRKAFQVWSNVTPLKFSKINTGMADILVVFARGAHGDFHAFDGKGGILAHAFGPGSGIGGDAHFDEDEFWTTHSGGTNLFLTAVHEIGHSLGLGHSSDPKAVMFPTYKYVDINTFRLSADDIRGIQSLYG

| IC50 [1] [µM] | IC50 [2] [µM] | IC50 [3] [µM] | IC50 [4] [µM] | IC50 [5] [µM] | IC50 [6] [µM] | IC50 [7] [µM] | IC50 [8] [µM] | IC50 [9] [µM] | melting point [°C] | SMILES |
| --- | --- | --- | --- | --- | --- | --- | --- | --- | --- | --- |
| 0.0011 | > 30 | 100 | 7.9 | > 100 | > 30 | 27 | > 100 | – | – | O=C(O)c1ccc(Cc2nnc(-c3cccc(C#CCc4ccc(F)cc4)c3)s2)cc1 [Example C2, 4-(5-{3-[3-(4-Fluoro-phenyl)-prop-1-ynyl]-phenyl}-[1,3,4]thiadiazol-2-ylmethyl)-benzoic acid] |
| 0.0015 | – | 4.7 | – | > 100 | > 100 | > 30 | 30 | 18 | 210 to 212 | O=C(O)c1ccc(Cn2nnc(-c3cccc(C#CCc4ccc(F)cc4)c3)n2)cc1 [Example C4, 4-(5-{3-[3-(4-Fluoro-phenyl)-prop-1-ynyl]-phenyl}-tetrazol-2-ylmethyl)-benzoic acid] |
| 0.0017 | > 100 | 100 | > 100 | > 100 | > 100 | > 100 | – | – | 193 to 194 | O=C(O)c1ccc(Cn2nnc(-c3ccnc(C(=O)NCc4ccc(F)cc4)c3)n2)cc1 [Example F12, 4-{5-[2-(4-Fluoro-benzylcarbamoyl)-pyridin-4-yl]-tetrazol-2-ylmethyl}-benzoic acid] |
| 0.01 | – | – | – | – | – | – | – | – | 211 to 213 | O=C(O)c1ccc(Cn2nnc(-c3cncc(C#CCc4ccccc4)c3)n2)cc1 [Example H1, 4-{5-[5-(3-Phenyl-prop-1-ynyl)-pyridin-3-yl]-tetrazol-2-ylmethyl}-benzoic acid] |
| 0.0027 | > 100 | 4.3 | > 30 | > 100 | > 30 | > 30 | > 100 | – | – | COc1ccc(CC#Cc2cncc(-c3nnn(Cc4ccc(C(=O)O)cc4)n3)c2)cc1 [Example H4, 4-(5-{5-[3-(4-Methoxy-phenyl)-prop-1-ynyl]-pyridin-3-yl}-tetrazol-2-ylmethyl)-benzoic acid] |
| 0.0026 | – | – | – | – | – | – | – | – | 158 to 159 | O=C(O)Cc1ccc(Cn2nnc(-c3cccc(C#CCc4ccc(F)cc4)c3)n2)cc1 [Example I1, [4-(5-{3-[3-(4-Fluoro-phenyl)-prop-1-ynyl]-phenyl}-tetrazol-2-ylmethyl)-phenyl]-acetic acid] |
| 0.0012 | – | – | – | – | – | – | – | – | 172 to 173 | O=C(O)C1CCC(Cn2nnc(-c3cccc(C#CCc4ccc(F)cc4)c3)n2)CC1 (centres unmarked) [Example I2, 4-(5-{3-[3-(4-Fluoro-phenyl)-prop-1-ynyl]-phenyl}-tetrazol-2-ylmethyl)-cyclohexanecarboxylic acid] |
